# Measurements reported in US20050089471A1, “Labeled ligands for lectin-like oxidized low-density lipoprotein receptor (LOX-1)” (priority 2003, published 2005).
# Where no end group is shown, it is not given here. fluorescein = fluorescein (Fl)
# Test system: human endothelial coronary artery cells (HCAECs) which are known in the literature to express LOX-1
# Experiment: Fluorescent confocal imaging of labeled peptide bound to HCAECs
# Assay type: cell-based
# Settings: HCAECs grown in glass slides, fluorescent confocal microscope, FIG. 2
# Method: Images in the assay may be acquired using a laser confocal microscope or an Imager. For example, images of peptides bound to cells can be obtained using a laser confocal microscope as follows: HCAE cells can be grown on high quality borosilicate 8-chambered glass slides (Electron Microscopy Sciences, Fort Washington, Pa.). Then, about 10 μL of 1 mg/ml of an aqueous solution of a labeled peptide can be added to the cells and incubated for 1 hour. Subsequently, the cells preferably are washed with HBSS buffer three times. The cells then can be fixed with 4% formaldehyde solution over 10 minutes. After a final wash with buffer, the slide is imaged. Images preferably are acquired using an OLYMPUS laser scanning confocal microscope, model Fluoview 300, using Ar-ion laser (selecting 488 nm line) and a 510-nm long-pass filter. Images can be acquired using two channels: reflected light and fluorescent mode channel, or an overlay of both channels.
# The experimental conditions for imaging the peptide-labeled HCAECs are described previously.
substance,measurement,value
Fl-KKGG-FQTPPQL (fluorescein-KKGGFQTPPQL) [peptide FQTPPQL conjugated with fluorescein via KKGG linker],binding to / localization on HCAECs (fluorescent image),shown to bind
